Test results reported in US20150218212A1, “FLUORINATED EPOXYKETONE-BASED TETRAPEPTIDE COMPOUNDS AND USES THEREOF AS PROTEASOME INHIBITORS” (FLUORINOV PHARMA INC., priority 2012, published 2015).

Tests used:
Format in all cases: cell-based, human
MOLT-4 = test: NCI screening panel, MOLT-4 (Leukemia)
Protocol: (§1) Representative compounds of Formula I were screened using the National Cancer Institute (NCI) screening panel, which consists of a panel of human tumor cell lines, representing leukemia, melanoma, and cancers of the lung, colon, ovary, breast, prostate and renal system.
(§2) After 24 h, two plates of each cell line are fixed in situ with TCA, to represent a measurement of the cell population for each cell line at the time of drug addition (Tz). Experimental drugs are solubilised in dimethyl sulfoxide at 400-fold the desired final maximum test concentration and stored frozen prior to use. At the time of drug addition, an aliquot of frozen concentrate is thawed and diluted to twice the desired final maximum test concentration with complete medium containing 50 μg/mL gentamicin. Additional four, 10-fold or ½ log serial dilutions are made to provide a total of five drug concentrations plus control. Aliquots of 100 μl of these different drug dilutions are added to the appropriate microtiter wells already containing 100 μl of medium, resulting in the required final drug concentrations.
(§3) Following drug addition, the plates are incubated for an additional 48 h at 37° C., 5% CO2, 95% air, and 100% relative humidity. For adherent cells, the assay is terminated by the addition of cold TCA (trichloroacetic acid). Cells are fixed in situ by the gentle addition of 50 μl of cold 50% (w/v) TCA (final concentration, 10% TCA) and incubated for 60 minutes at 4° C. The supernatant is discarded, and the plates are washed five times with tap water and air dried. Sulforhodamine B (SRB) solution (100 μl) at 0.4% (w/v) in 1% acetic acid is added to each well, and plates are incubated for 10 minutes at room temperature. After staining, unbound dye is removed by washing five times with 1% acetic acid and the plates are air dried. Bound stain is subsequently solubilised with 10 mM trizma base, and the absorbance is read on an automated plate reader at a wavelength of 515 nm. For suspension cells, the methodology is the same except that the assay is terminated by fixing settled cells at the bottom of the wells by gently adding 50 μl of 80% TCA (final concentration, 16% TCA). Using the seven absorbance measurements [time zero, (Tz), control growth, (C), and test growth in the presence of drug at the five concentration levels (Ti)], the percentage growth is calculated at each of the drug concentrations levels. Percentage growth inhibition is calculated as: [(Ti−Tz)/(C−Tz)]×100 for concentrations for which Ti>/=Tz and [(Ti−Tz)/Tz]×100 for concentrations for which Ti<Tz.
(§4) Three dose response parameters are calculated for each experimental agent. Growth inhibition of 50% (GI50) is calculated from [(Ti−Tz)/(C−Tz)]×100=50, which is the drug concentration resulting in a 50% reduction in the net protein increase (as measured by SRB staining) in control cells during the drug incubation. The drug concentration resulting in total growth inhibition (TGI) is calculated from Ti=Tz. The LC50 (concentration of drug resulting in a 50% reduction in the measured protein at the end of the drug treatment as compared to that at the beginning) indicating a net loss of cells following treatment is calculated from [(Ti−Tz)/Tz]×100=−50. Values are calculated for each of these three parameters if the level of activity is reached. However, if the effect is not reached or is exceeded, the value for that parameter is expressed as greater or less than the maximum or minimum concentration tested.

RPMI-8226 = test: NCI screening panel, RPMI-8226 (Leukemia)
Protocol: as §1, §2, §3, §4

NCI-H23 = test: NCI screening panel, NCI-H23 (Non-Small Cell Lung Cancer)
Protocol: as §1, §2, §3, §4

NCI-H322M = test: NCI screening panel, NCI-H322M (Non-Small Cell Lung Cancer)
Protocol: as §1, §2, §3, §4

HT29 = test: NCI screening panel, HT29 (Colon Cancer)
Protocol: as §1, §2, §3, §4

KM12 = test: NCI screening panel, KM12 (Colon Cancer)
Protocol: as §1, §2, §3, §4

SF-539 = test: NCI screening panel, SF-539 (CNS Cancer)
Protocol: as §1, §2, §3, §4

SNB-75 = test: NCI screening panel, SNB-75 (CNS Cancer)
Protocol: as §1, §2, §3, §4

M14 = test: NCI screening panel, M14 (Melanoma)
Protocol: as §1, §2, §3, §4

OVCAR-4 = test: NCI screening panel, OVCAR-4 (Ovarian Cancer)
Protocol: as §1, §2, §3, §4

OVCAR-5 = test: NCI screening panel, OVCAR-5 (Ovarian Cancer)
Protocol: as §1, §2, §3, §4

A498 = test: NCI screening panel, A498 (Renal Cancer)
Protocol: as §1, §2, §3, §4

SN12C = test: NCI screening panel, SN12C (Renal Cancer)
Protocol: as §1, §2, §3, §4

TK-10 = test: NCI screening panel, TK-10 (Renal Cancer)
Protocol: as §1, §2, §3, §4

UO-31 = test: NCI screening panel, UO-31 (Renal Cancer)
Protocol: as §1, §2, §3, §4

MCF7 = test: NCI screening panel, MCF7 (Breast Cancer)
Protocol: as §1, §2, §3, §4

HS 578T = test: NCI screening panel, HS 578T (Breast Cancer)
Protocol: as §1, §2, §3, §4

Structure (SMILES): CC(C)C[C@H](NC(=O)[C@H](COC(F)F)NC(=O)CN1CCOCC1)C(=O)N[C@@H](COC(F)F)C(=O)N[C@@H](Cc1ccccc1)C(=O)[C@@]1(C)CO1 [Example 4, (2S)-N-[(1S)-2-[[(1S)-1-benzyl-2-[(2R)-2-methyloxiran-2-yl]-2-oxo-ethyl]amino]-1-(difluoromethoxymethyl)-2-oxo-ethyl]-2-[[(2S)-3-(difluoromethoxy)-2-[(2-mor-pholinoacetyl)amino]propanoyl]amino]-4 methyl-pentanamide]
- Log10GI50 (MOLT-4): −7.82
- Log10LC50 (MOLT-4): >−4.00
- Log10TGI50 (MOLT-4): −7.07
- Log10GI50 (RPMI-8226): −7.51
- Log10LC50 (RPMI-8226): >−4.00
- Log10TGI50 (RPMI-8226): −6.54
- Log10GI50 (NCI-H23): −7.51
- Log10LC50 (NCI-H23): −4.31
- Log10TGI50 (NCI-H23): −6.63
- Log10GI50 (NCI-H322M): −6.73
- Log10LC50 (NCI-H322M): −4.18
- Log10TGI50 (NCI-H322M): −5.81
- Log10GI50 (HT29): −7.50
- Log10LC50 (HT29): >−4.00
- Log10TGI50 (HT29): −5.63
- Log10GI50 (KM12): −7.70
- Log10LC50 (KM12): −6.44
- Log10TGI50 (KM12): −7.29
- Log10GI50 (SF-539): −7.64
- Log10LC50 (SF-539): −5.26
- Log10TGI50 (SF-539): −7.22
- Log10GI50 (SNB-75): −7.70
- Log10LC50 (SNB-75): −6.25
- Log10TGI50 (SNB-75): −7.25
- Log10GI50 (M14): −6.97
- Log10LC50 (M14): >−4.00
- Log10TGI50 (M14): −5.66
- Log10GI50 (OVCAR-4): −7.43
- Log10LC50 (OVCAR-4): >−4.00
- Log10TGI50 (OVCAR-4): −6.34
- Log10GI50 (OVCAR-5): −7.29
- Log10LC50 (OVCAR-5): >−4.00
- Log10TGI50 (OVCAR-5): −6.07
- Log10GI50 (A498): −7.42
- Log10LC50 (A498): −5.65
- Log10TGI50 (A498): −6.61
- Log10GI50 (SN12C): −7.20
- Log10LC50 (SN12C): −4.79
- Log10TGI50 (SN12C): −6.47
- Log10GI50 (TK-10): −6.57
- Log10LC50 (TK-10): >−4.00
- Log10TGI50 (TK-10): −5.48
- Log10GI50 (UO-31): −5.77
- Log10LC50 (UO-31): −4.22
- Log10TGI50 (UO-31): −5.24
- Log10GI50 (MCF7): <−8.00
- Log10LC50 (MCF7): >−4.00
- Log10TGI50 (MCF7): −4.82
- Log10GI50 (HS 578T): −7.71
- Log10LC50 (HS 578T): >−4.00
- Log10TGI50 (HS 578T): −7.01

Structure (SMILES): CC(C)C[C@H](NC(=O)[C@H](Cc1ccccc1)NC(=O)[C@H](COC(F)F)NC(=O)[C@H](COC(F)F)NC(=O)CN1CCOCC1)C(=O)[C@@]1(C)CO1 [Example 11, (2S)-2-[[(2S)-3-(difluoromethoxy)-2-[[(2S)-3-(difluoromethoxy)-2-[(2-morpholinoacetyl)-amino]propanoyl]amino]propanoyl]amino]-N-[(1S)-3-methyl-1-[(2R)-2-methyloxirane-2-carbonyl]butyl]-3-phenyl-propanamide]
- Log10GI50 (MOLT-4): <−8.00
- Log10LC50 (MOLT-4): >−4.00
- Log10TGI50 (MOLT-4): −6.83
- Log10GI50 (RPMI-8226): −7.65
- Log10LC50 (RPMI-8226): >−4.00
- Log10TGI50 (RPMI-8226): −7.02
- Log10GI50 (NCI-H23): −7.50
- Log10LC50 (NCI-H23): >−4.00
- Log10TGI50 (NCI-H23): −5.55
- Log10GI50 (NCI-H322M): −6.85
- Log10LC50 (NCI-H322M): −4.06
- Log10TGI50 (NCI-H322M): −6.03
- Log10GI50 (HT29): −7.70
- Log10LC50 (HT29): >−4.00
- Log10TGI50 (HT29): −5.91
- Log10GI50 (KM12): −7.73
- Log10LC50 (KM12): −7.07
- Log10TGI50 (KM12): −7.40
- Log10GI50 (SF-539): −7.66
- Log10LC50 (SF-539): −5.48
- Log10TGI50 (SF-539): −7.21
- Log10GI50 (SNB-75): −7.62
- Log10LC50 (SNB-75): >−4.00
- Log10TGI50 (SNB-75): −7.15
- Log10GI50 (M14): −7.21
- Log10LC50 (M14): >−4.00
- Log10TGI50 (M14): −5.91
- Log10GI50 (OVCAR-4): −7.68
- Log10LC50 (OVCAR-4): >−4.00
- Log10TGI50 (OVCAR-4): −5.69
- Log10GI50 (OVCAR-5): −7.37
- Log10LC50 (OVCAR-5): >−4.00
- Log10TGI50 (OVCAR-5): −6.46
- Log10GI50 (A498): −7.64
- Log10LC50 (A498): −6.08
- Log10TGI50 (A498): −7.00
- Log10GI50 (SN12C): −7.20
- Log10LC50 (SN12C): −5.39
- Log10TGI50 (SN12C): −6.50
- Log10GI50 (TK-10): −6.80
- Log10LC50 (TK-10): >−4.00
- Log10TGI50 (TK-10): −5.30
- Log10GI50 (UO-31): −6.17
- Log10LC50 (UO-31): −4.24
- Log10TGI50 (UO-31): −5.47
- Log10GI50 (MCF7): <−8.00
- Log10LC50 (MCF7): >−4.00
- Log10TGI50 (MCF7): >−4.00
- Log10GI50 (HS 578T): −7.70
- Log10LC50 (HS 578T): >−4.00
- Log10TGI50 (HS 578T): −6.97
